The source of these data is patent US11241438B2, “Formulations of an AXL/MER inhibitor” (Incyte Corporation, priority 2018, dated 2022).

The target in data set [1] is T1, phosphor-Axl (Homo sapiens (Human), UniProt P30530). The following applies: data disclosed in U.S. Pat. No. 9,981,975; cited from earlier work.
For data set [2], the target named is T2, c-Mer (Homo sapiens (Human), UniProt Q12866). The following applies: data disclosed in U.S. Pat. No. 9,981,975; cited from earlier work.
The target in data set [3] is T1, phosphor-Axl. Put plainly: TAM enzymatic assay (HTRF), Axl. The format is biochemical. The method, then:
Axl Autophosphorylation Assay
Autophosphorylation of Axl was carried out by incubating the recombinant Axl protein (Life Technologies, PV4275) in buffer containing 50 mM Tris, pH7.5, 0.2 mg/ml Axl, 5 mM ATP, 20 mM MgCl2 and 2 mM DTT at room temperature for 1 hour.
(§1) The kinase assay buffer contained 50 mM HEPES, pH7.5, 10 mM MgCl2, 1 mM EGTA, 0.01% NP-40 and 2 mM DTT. 0.1 ul test compounds dissolved in DMSO were transferred from compound plates to white 384-well assay plates (Greiner […] plates). The final concentration of DMSO was 1.25%. Enzyme solutions of 5.1 nM phosphor-Axl, or 0.0625 nM c-Mer (Carna Biosciences, 08-108), or 0.366 nM Tyro3 (Life Technologies, PR7480A) were prepared in assay buffer. A 1 mM stock solution of peptide substrate Biotin-[…]-amide SEQ ID NO: 1 (Quality Controlled Biochemicals, MA) dissolved in DMSO was diluted to 1 uM in assay buffer containing 2000 uM ATP. 4 ul enzyme solution (or assay buffer for the enzyme blank) was added to the appropriate wells in each plate, and then 4 ul/well substrate solution was added to initiate the reaction. […] The plate was incubated for 1 h at room temperature, and HTRF (homogenous time resolved fluorescence) signal was measured on a PHERAstar FS plate reader (BMG labtech). Percentage of inhibition was calculated for each concentration and IC50 value was generated from curve fitting with GraphPad Prism software.

Data set [4] has as its target T2, c-Mer. In words: TAM enzymatic assay (HTRF), Mer. The format is biochemical. The method, then:
as §1, with “reaction. The plate was protected from light and incubated at room temperature for 60 min.” for “reaction.”

A short description of data set [5]: Solubility study in aqueous surfactant solutions. The class given is physicochemical. The following applies: thermodynamic from solid, 37° C., after 60 minutes stirring, theoretical maximum 0.20 mg/ml, read-out: Concentration (solubility). The method, then:
The solubility of Compound I maleate was determined in aqueous solution in the presence of several surfactants at 37° C. The surfactants included sodium lauryl sulfate (SLS), poloxamer 188, and poloxamer 407 at a concentration of 0.2% (w/v) in water; a vessel without surfactant was included as a control. The experiment was performed in a Distek 2100 dissolution bath using 500 ml of media stirred at 100 RPM (USP type II dissolution apparatus). 100 mg of drug substance (free base equivalent) was added to the media to give a theoretical maximum concentration of 0.20 mg/ml. 5 ml samples were taken and filtered with a 0.45 micron GHP filter prior to analysis by HPLC. Listed below are the observed concentrations for the samples after 60 minutes of stirring time.

Where a name gives a salt, the structure may show the parent alone. Read-outs that look alike come from different tables or passages of the source.

T2 sequence (Q12866 21-999): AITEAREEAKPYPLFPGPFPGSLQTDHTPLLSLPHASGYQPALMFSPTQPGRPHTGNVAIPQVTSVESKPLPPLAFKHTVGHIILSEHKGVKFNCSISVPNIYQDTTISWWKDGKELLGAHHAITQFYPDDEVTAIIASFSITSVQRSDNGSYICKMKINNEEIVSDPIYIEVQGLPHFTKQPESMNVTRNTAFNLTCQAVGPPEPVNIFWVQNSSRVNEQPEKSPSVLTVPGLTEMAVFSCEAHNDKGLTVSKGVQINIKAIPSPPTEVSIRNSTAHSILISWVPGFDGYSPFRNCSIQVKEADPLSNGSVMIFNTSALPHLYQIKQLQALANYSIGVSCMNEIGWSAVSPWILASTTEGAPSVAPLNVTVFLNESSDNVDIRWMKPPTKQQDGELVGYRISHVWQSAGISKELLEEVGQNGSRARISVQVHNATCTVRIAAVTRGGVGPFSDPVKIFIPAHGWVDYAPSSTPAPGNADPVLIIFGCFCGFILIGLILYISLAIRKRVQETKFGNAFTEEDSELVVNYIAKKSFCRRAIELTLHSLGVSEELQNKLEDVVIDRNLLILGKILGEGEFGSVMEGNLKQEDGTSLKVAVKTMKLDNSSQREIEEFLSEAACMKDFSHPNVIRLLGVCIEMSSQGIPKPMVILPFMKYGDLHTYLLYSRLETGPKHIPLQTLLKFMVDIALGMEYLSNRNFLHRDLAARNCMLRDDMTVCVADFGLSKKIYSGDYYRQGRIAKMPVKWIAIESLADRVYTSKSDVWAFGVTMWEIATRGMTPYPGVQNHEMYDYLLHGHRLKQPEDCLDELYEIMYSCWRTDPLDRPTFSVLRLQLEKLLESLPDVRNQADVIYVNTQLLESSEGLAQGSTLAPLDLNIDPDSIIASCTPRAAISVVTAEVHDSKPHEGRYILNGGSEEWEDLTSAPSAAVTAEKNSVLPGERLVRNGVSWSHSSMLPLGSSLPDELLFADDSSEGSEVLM
T1 sequence (P30530 26-894): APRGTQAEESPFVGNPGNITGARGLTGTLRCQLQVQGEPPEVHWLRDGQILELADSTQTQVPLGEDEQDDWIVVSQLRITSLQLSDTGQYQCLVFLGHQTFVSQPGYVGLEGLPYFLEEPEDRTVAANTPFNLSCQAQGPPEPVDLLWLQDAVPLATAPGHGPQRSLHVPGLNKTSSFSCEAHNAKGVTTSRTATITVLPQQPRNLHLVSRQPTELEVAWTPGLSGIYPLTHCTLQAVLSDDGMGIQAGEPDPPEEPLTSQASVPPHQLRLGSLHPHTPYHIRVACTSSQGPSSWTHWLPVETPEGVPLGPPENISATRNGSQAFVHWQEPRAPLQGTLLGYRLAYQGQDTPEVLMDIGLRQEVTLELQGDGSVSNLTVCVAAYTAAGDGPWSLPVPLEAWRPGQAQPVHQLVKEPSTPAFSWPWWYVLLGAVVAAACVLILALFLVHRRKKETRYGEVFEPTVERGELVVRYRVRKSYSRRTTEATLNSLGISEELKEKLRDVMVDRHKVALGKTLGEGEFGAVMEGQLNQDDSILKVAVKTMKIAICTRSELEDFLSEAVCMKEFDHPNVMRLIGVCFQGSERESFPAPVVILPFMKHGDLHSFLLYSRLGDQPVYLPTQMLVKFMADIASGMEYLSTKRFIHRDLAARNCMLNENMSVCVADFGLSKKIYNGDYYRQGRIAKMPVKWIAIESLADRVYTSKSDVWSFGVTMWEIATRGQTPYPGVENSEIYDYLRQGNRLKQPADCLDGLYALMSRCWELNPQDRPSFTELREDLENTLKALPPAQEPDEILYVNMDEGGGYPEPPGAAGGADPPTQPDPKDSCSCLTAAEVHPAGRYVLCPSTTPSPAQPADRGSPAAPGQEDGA

Regarding `CC(C)C(=O)N1CCC(c2cc(-c3ccc(NC(=O)c4cn(C(C)C)c(=O)n(-c5ccccn5)c4=O)cc3)c3c(N)ncnn23)CC1` [Compound I trifluoroacetic acid salt], the half-maximal inhibitory concentration (IC50) on phosphor-Axl [1] and on c-Mer [2] was below 5 nM each time.

Consider `CC(C)C(=O)N1CCC(c2cc(-c3ccc(NC(=O)c4cn(C(C)C)c(=O)n(-c5ccccn5)c4=O)cc3)c3c(N)ncnn23)CC1.O=C(O)/C=C\C(=O)O` [Compound I maleate, N-(4-(4-amino-7-(1-isobutyrylpiperidin-4-yl)pyrrolo[2,1-f][1,2,4]triazin-5-yl)phenyl)-1-isopropyl-2,4-dioxo-3-(pyridin-2-yl)-1,2,3,4-tetrahydropyrimidine-5-carboxamide maleate], for which the IC50 on phosphor-Axl [3] and against c-Mer [4] was below 5 nM in each case. Besides, the solubility at 60 min was 18 µg/mL in data set [5] (0.2% (w/v) poloxamer 188 in water, aqueous with cosolvent or surfactant or cyclodextrin, 0.2% Poloxamer 188 in water); 9 µg/mL in data set [5] (0.2% (w/v) poloxamer 407 in water, aqueous with cosolvent or surfactant or cyclodextrin, 0.2% Poloxamer 407 in water); above 200 µg/mL in data set [5] (0.2% (w/v) sodium lauryl sulfate in water, aqueous with cosolvent or surfactant or cyclodextrin, 0.2% SLS in water); 7 µg/mL in data set [5] (water without surfactant (control), water (no surfactant)).
